Test results taken from publication PMC8443589, “Modelling human liver fibrosis in the context of non-alcoholic steatohepatitis using a microphysiological system” (Communications Biology, 2021).

What was measured:
Format in all cases: cell-based, human
[1] = test system: liver MPS NASH model (PHH, KC and HSC co-cultures); experiment: Cue study: albumin production (ELISA)
[2] = test system: liver MPS NASH model (PHH, KC and HSC co-cultures); experiment: Cue study: secreted cytokines and chemokines (Luminex) with varying NPC number and added cues (Fig 5a, 5b)
Excerpt: There is only limited understanding of the pathogenic drivers of NASH and their interaction, principally due to a lack of translational models that are amenable to detailed molecular analysis[2],[34]. Here, a systems biology ‘cue-signal-analysis’ paradigm[35],[36] was utilised to produce large factorial datasets to enable the identification of molecular pathways of importance. […] To create varying set ups of the NASH microtissues we created hepatocyte microtissues in the MPS with high numbers of NPC (60,000 KC and HSC—equivalent to 10% of microtissue population) and low numbers of NPCs (6000 KC and HSC—equivalent to 1% of microtissue), representing physiological and non-physiological cell ratios respectively. Next, we took these different microtissues and cultured them in media with or without FFA. Finally, we supplemented the media with lipopolysaccharide (LPS), TGFβ, fructose or cholesterol either as single ‘cues’, in pairs or all together (Fig. 4a). ‘Cues’ were selected for clinical association with NASH. LPS, is a pleiotropic inflammatory molecule, it is proposed to reach the liver via the hepatic portal vein after release from the gastrointestinal tract, contributing to disease progression[37],[38]. TGFβ has been extensively studied in relation to fibrosis due to its regulation of genes controlling collagen and matrix-modifying enzymes. Fructose is a key substrate for de-novo lipogenesis, a process that has been identified as a key event in lipid accumulation within NAFLD patients. Finally, cholesterol accumulation has also been linked to NASH disease aetiology.
Assessment of gene expression changes was supplemented by assessment of the secretome produced by NASH microtissues in the MPS after exposure to the various cues. Increased pro-inflammatory cytokine secretion is a defining characteristic in NASH patients, so we conducted a Luminex cytokine array covering 42 different biomarkers, cytokines and chemokines secreted into the culture media of the different microtissues at multiple time points. […]

[3] = test system: liver MPS NASH model (PHH, KC and HSC co-cultures); experiment: Cue study: pro-fibrotic biomarkers TIMP-1, pro-collagen 1, fibronectin (Fig 5c); conditions: fat medium + cue
Excerpt: Assessment of gene expression changes was supplemented by assessment of the secretome produced by NASH microtissues in the MPS after exposure to the various cues. Increased pro-inflammatory cytokine secretion is a defining characteristic in NASH patients, so we conducted a Luminex cytokine array covering 42 different biomarkers, cytokines and chemokines secreted into the culture media of the different microtissues at multiple time points. We consistently detected 27 out of the 42 biomarkers and observed that there was differential expression of cytokines and chemokines driven by the different cues applied to the micro-tissue (Fig. 5a, b). The LPS cue and the presence of higher NPC numbers were responsible for driving the largest increase in cytokine and chemokine release, with the largest increases in cytokines measured on day 14 (Fig. 5b). […] Similarly, to the cytokine production, these changes were not further enhanced by combining cues, as all the cue combinations containing TGFβ had the highest expression (Supp. Fig. 17c).
Fig. 5 Systems biology interrogation of liver MPS NASH model to determine physiologically relevant cues that promote soluble biomarker changes to mimic advanced NASH disease state. PHH, KC and HSC co-cultures were cultured in the MPS platform under a variety of conditions for 14 days to test number of NPCs, presence of fat, fructose, cholesterol, LPS and TGFβ for effects on the soluble biomarker profile of the liver MPS NASH model. Expression of biomarkers, cytokines and chemokines were compared, all concentrations were normalised by Z-transformation to allow comparison and shown relative to mean for each marker (white = not detected). a Cytokine expression compared with varying levels of NPCs; b for the high NPC group in the presence of additional cues; c Expression of pro-fibrotic biomarkers with varying NPC content and with additional varying cues in high NPC condition (additional data in Supp. Fig. 17). d Graphical summary of the changes that occur in the NASH model in the presence of Fat and Fat + TGFβ. All data were generated from a minimum of three independent replicate samples per condition.
The MPS LC12 plates consists of 12 individual bioreactors that contain pneumatically driven micro-pumps to recirculate cell culture medium through a collagen-coated scaffold. Cells were cultured using the protocol previously described[20],[21], but briefly, PHH were seeded at a density of 6 × 10^5 viable cells per well on the LC12 plates with each NPC population (KC and/or HSC) at a density of 6 × 10^4 viable cells per well. Each well contained a final volume of 1.6 mL of medium per well and maintained under a flow rate of 1.0 µL/s. Cells were seeded in Williams E medium containing primary hepatocyte thawing and plating supplements (Life Technologies, USA) and cultured initially under downward flow for 8 h before the flow was automatically reversed to upward flow for the next 16 h of culture. Microtissues were then cultured in either HEP-Lean or HEP-Fat medium, both media’s are proprietary to CN Bio Innovations Ltd. The HEP-Fat medium is a derivative of the HEP-LEAN medium and contains a mixture of saturated and unsaturated FFAs, as well as physiologically relevant quantities of insulin and sugars. Complete media changes were performed on all wells every 48–72 h. For certain experiments, the media was supplemented with additional additives from day 4 onwards: 1 ng/ml LPS (lipopolysaccharides from Escherichia coli O111:B4) (Sigma Aldrich, UK), 1 ng/ml recombinant TGF beta 1 protein (Abcam, UK); 500 µM Fructose (Sigma Aldrich, UK), 50 µg/ml Cholesterol (Sigma Aldrich, UK). […]

Compound: CC(C)CCC[C@@H](C)[C@H]1CC[C@H]2[C@@H]3CC=C4C[C@@H](O)CC[C@]4(C)[C@H]3CC[C@]12C [Cholesterol]
- Albumin production [1]: to a lesser extent
- EGF relative expression (z-transformation) ([2]; Day 6, Fat media + cue): -2.017
- Eotaxin relative expression (z-transformation) ([2]; Day 6, Fat media + cue): -0.7967
- FGF-2 relative expression (z-transformation) ([2]; Day 6, Fat media + cue): -0.2249
- Fit-3L relative expression (z-transformation) ([2]; Day 6, Fat media + cue): -1.968
- Fractalkine relative expression (z-transformation) ([2]; Day 6, Fat media + cue): -1.501
- G-CSF relative expression (z-transformation) ([2]; Day 6, Fat media + cue): -0.1828
- GM-CSF relative expression (z-transformation) ([2]; Day 6, Fat media + cue): -0.6958
- GRO relative expression (z-transformation) ([2]; Day 6, Fat media + cue): -0.8479
- IFN-a2 relative expression (z-transformation) ([2]; Day 6, Fat media + cue): -1.086
- IL-1RA relative expression (z-transformation) ([2]; Day 6, Fat media + cue): -1.579
- IL-4 relative expression (z-transformation) ([2]; Day 6, Fat media + cue): -1.537
- IL-6 relative expression (z-transformation) ([2]; Day 6, Fat media + cue): -0.8492
- IL-7 relative expression (z-transformation) ([2]; Day 6, Fat media + cue): -1.138
- IL-8 relative expression (z-transformation) ([2]; Day 6, Fat media + cue): -1.037
- IL-15 relative expression (z-transformation) ([2]; Day 6, Fat media + cue): -1.447
- IP-10 relative expression (z-transformation) ([2]; Day 6, Fat media + cue): -1.086
- MCP-1 relative expression (z-transformation) ([2]; Day 6, Fat media + cue): -1.585
- MCP-3 relative expression (z-transformation) ([2]; Day 6, Fat media + cue): -1.263
- MDC relative expression (z-transformation) ([2]; Day 6, Fat media + cue): -0.4545
- MIP-1a relative expression (z-transformation) ([2]; Day 6, Fat media + cue): -0.7293
- MIP-1b relative expression (z-transformation) ([2]; Day 6, Fat media + cue): -0.9104
- TNFa relative expression (z-transformation) ([2]; Day 6, Fat media + cue): -0.774
- VEGF relative expression (z-transformation) ([2]; Day 6, Fat media + cue): -0.01821
- EGF relative expression (z-transformation) ([2]; Day 11, Fat media + cue): 1.504
- Eotaxin relative expression (z-transformation) ([2]; Day 11, Fat media + cue): -0.8044
- FGF-2 relative expression (z-transformation) ([2]; Day 11, Fat media + cue): 0.794
- Fractalkine relative expression (z-transformation) ([2]; Day 11, Fat media + cue): -1.145
- G-CSF relative expression (z-transformation) ([2]; Day 11, Fat media + cue): -0.8882
- GRO relative expression (z-transformation) ([2]; Day 11, Fat media + cue): -1.084
- IFN-a2 relative expression (z-transformation) ([2]; Day 11, Fat media + cue): -0.9638
- IL-1RA relative expression (z-transformation) ([2]; Day 11, Fat media + cue): -1.623
- IL-4 relative expression (z-transformation) ([2]; Day 11, Fat media + cue): -1.08
- IL-6 relative expression (z-transformation) ([2]; Day 11, Fat media + cue): -0.9589
- IL-7 relative expression (z-transformation) ([2]; Day 11, Fat media + cue): -0.957
- IL-8 relative expression (z-transformation) ([2]; Day 11, Fat media + cue): -1.364
- IL-15 relative expression (z-transformation) ([2]; Day 11, Fat media + cue): -1.997
- IP-10 relative expression (z-transformation) ([2]; Day 11, Fat media + cue): -1.199
- MCP-1 relative expression (z-transformation) ([2]; Day 11, Fat media + cue): -2.479
- MCP-3 relative expression (z-transformation) ([2]; Day 11, Fat media + cue): -1.098
- MDC relative expression (z-transformation) ([2]; Day 11, Fat media + cue): -1.98
- MIP-1a relative expression (z-transformation) ([2]; Day 11, Fat media + cue): -0.8147
- MIP-1b relative expression (z-transformation) ([2]; Day 11, Fat media + cue): -0.9274
- VEGF relative expression (z-transformation) ([2]; Day 11, Fat media + cue): -1.0705
- Eotaxin relative expression (z-transformation) ([2]; Day 14, Fat media + cue): -0.1613
- FGF-2 relative expression (z-transformation) ([2]; Day 14, Fat media + cue): -0.6319
- Fractalkine relative expression (z-transformation) ([2]; Day 14, Fat media + cue): -0.3551
- G-CSF relative expression (z-transformation) ([2]; Day 14, Fat media + cue): -1.591
- GM-CSF relative expression (z-transformation) ([2]; Day 14, Fat media + cue): -1.001
- GRO relative expression (z-transformation) ([2]; Day 14, Fat media + cue): -0.8633
- IFN-a2 relative expression (z-transformation) ([2]; Day 14, Fat media + cue): -1.669
- IL-1RA relative expression (z-transformation) ([2]; Day 14, Fat media + cue): -1.544
- IL-4 relative expression (z-transformation) ([2]; Day 14, Fat media + cue): -1.577
- IL-6 relative expression (z-transformation) ([2]; Day 14, Fat media + cue): -0.7817
- IL-7 relative expression (z-transformation) ([2]; Day 14, Fat media + cue): -1.113
- IL-8 relative expression (z-transformation) ([2]; Day 14, Fat media + cue): -1.061
- IL-15 relative expression (z-transformation) ([2]; Day 14, Fat media + cue): -1.074
- IP-10 relative expression (z-transformation) ([2]; Day 14, Fat media + cue): -0.9907
- MCP-1 relative expression (z-transformation) ([2]; Day 14, Fat media + cue): -1.142
- MCP-3 relative expression (z-transformation) ([2]; Day 14, Fat media + cue): -1.036
- MDC relative expression (z-transformation) ([2]; Day 14, Fat media + cue): -1.936
- MIP-1a relative expression (z-transformation) ([2]; Day 14, Fat media + cue): -0.7839
- MIP-1b relative expression (z-transformation) ([2]; Day 14, Fat media + cue): -0.9403
- TNFa relative expression (z-transformation) ([2]; Day 14, Fat media + cue): -0.8637
- VEGF relative expression (z-transformation) ([2]; Day 14, Fat media + cue): 3.004
- TNFα ([2]; day 14): greatest increase
- Fibronectin (Fold change in cytokine production compared to control) ([3]; Day 6, high NPC): 0.5839
- Pro-collagen 1 (Fold change in cytokine production compared to control) ([3]; Day 6, high NPC): -0.1232
- TIMP-1 (Fold change in cytokine production compared to control) ([3]; Day 6, high NPC): -0.5668
- Fibronectin (Fold change in cytokine production compared to control) ([3]; Day 11, high NPC): 0.3927
- Pro-collagen 1 (Fold change in cytokine production compared to control) ([3]; Day 11, high NPC): 0.4365
- TIMP-1 (Fold change in cytokine production compared to control) ([3]; Day 11, high NPC): -0.1305
- Fibronectin (Fold change in cytokine production compared to control) ([3]; Day 14, high NPC): -0.4332
- Pro-collagen 1 (Fold change in cytokine production compared to control) ([3]; Day 14, high NPC): 0.3527
- TIMP-1 (Fold change in cytokine production compared to control) ([3]; Day 14, high NPC): -0.3247
